Data set [1] in a line: MRI relaxivity of Mn-PDA contrast agents with BAPTA, with and without calcium, in buffer. The settings on record: 1.1 equivalents BAPTA, equimolar Ca^2+. The data set is classed as physicochemical. As for the experimental part:
To examine the potential of Mn-PDA contrast agents to function as building blocks for the sensor design of FIG. 1A, MRI measurements were performed to assess the potential of BAPTA to interact with three paramagnetic chelates (FIG. 1A, inset). Addition of 1.1 equivalents of BAPTA to two of the Mn-PDA complexes, MnL1 and MnL3, produced significant effects on the T1-weighted MRI contrast induced by these compounds in buffer. These BAPTA-dependent contrast changes were reversed by addition of equimolar Ca^2+ (FIG. 1B). This was consistent with Mn-PDA moieties competing with Ca^2+ for binding to BAPTA molecules. The changes were quantified in terms of T1 relaxivity (r1) values, which were defined as the slope of the T1 relaxation rate (1/T1=R1) vs. concentration of each paramagnetic complex.
Most MRI data were acquired on a 7 T Bruker Biospec0 system using a T1-weighted 2D gradient echo sequence (echo time, TE=5 ms, repetition time, TR=100 ms; flip angle, FA=65 degrees (°)). Longitudinal relaxivity (r1) measurements were acquired using a 2D spin echo sequence (TE=11 ms, TR=125, 200, 400, 800, 1500, 3000, and 5000 ms), with in-plane resolution of 200×200 microns squared ((μm)^2) and 2 mm slice thickness. […] Stimulus-dependent R1 changes in cells were calculated as ΔR1/R1=[R1(incubated cells)−R1(naive cells)]/R1(naive cells). […]

Data set [2] can be described thus: Optical spectra / mass spectrometry of Mn-PDA complexes incubated with BAPTA over time. The class given is physicochemical. The following applies: mixture with BAPTA, 0 h vs 24 h; confirmed by mass spectrometry. The source says:
In contrast, the MnL1 mixture with BAPTA developed a strong peak for uncomplexed L1 (m/z=347.37), indicating dissociation of the MnL1 complex.

Results on one compound are retold here after patent US10933146B2, “Cell-permeable imaging sensors and uses thereof” (Massachusetts Institute of Technology, priority 2017, dated 2021).

For `O=C1c2ccccc2[O][Mn-]23[O]c4ccccc4C(=O)[N]2c2ccccc2[N]13` [MnL1], the “Calcium-dependent changes in r1 in the presence of BAPTA” value in data set [1] amounted to 105%. In addition, in data set [2], the “spectroscopic behavior in the presence of BAPTA over time (stability)” value is given as “sharp changes indicative of degradation”.
